Test results as given in patent US9244081B2, “Cell-based fluorescent assays for identifying alpha and delta ENaC modulators” (Senomyx, Inc., priority 2006, dated 2016).

Experiments:
[1] = target: T1, alphaENaC channel (human alpha, beta and gamma subunits) (Homo sapiens, UniProt P37088+P51168+P51170); assay: FLIPR membrane potential dye assay, dye loaded in absence of sodium (Protocol 1), alphaENaC-transfected HEK293 cells; format: cell-based
T1 construct: expressed in transfected cells; host or cells: HEK293, transient transfection
T1 sequence (P37088 1-669): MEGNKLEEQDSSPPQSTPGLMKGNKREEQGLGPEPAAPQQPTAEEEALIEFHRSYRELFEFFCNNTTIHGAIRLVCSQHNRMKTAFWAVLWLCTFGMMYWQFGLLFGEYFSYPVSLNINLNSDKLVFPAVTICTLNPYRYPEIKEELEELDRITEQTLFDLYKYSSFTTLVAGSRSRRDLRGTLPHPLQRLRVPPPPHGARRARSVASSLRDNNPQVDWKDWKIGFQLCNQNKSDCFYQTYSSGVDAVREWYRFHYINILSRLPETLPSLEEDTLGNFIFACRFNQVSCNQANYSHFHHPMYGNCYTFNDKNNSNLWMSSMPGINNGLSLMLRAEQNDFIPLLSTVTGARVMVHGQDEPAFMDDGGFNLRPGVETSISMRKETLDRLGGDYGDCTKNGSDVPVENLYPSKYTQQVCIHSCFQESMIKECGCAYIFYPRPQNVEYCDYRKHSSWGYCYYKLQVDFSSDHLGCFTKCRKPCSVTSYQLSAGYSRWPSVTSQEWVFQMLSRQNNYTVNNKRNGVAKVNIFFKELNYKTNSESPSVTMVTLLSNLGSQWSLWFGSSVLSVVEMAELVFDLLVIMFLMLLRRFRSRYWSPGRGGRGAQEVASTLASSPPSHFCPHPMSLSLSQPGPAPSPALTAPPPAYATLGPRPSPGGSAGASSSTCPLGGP
T1 sequence (P51168 1-640): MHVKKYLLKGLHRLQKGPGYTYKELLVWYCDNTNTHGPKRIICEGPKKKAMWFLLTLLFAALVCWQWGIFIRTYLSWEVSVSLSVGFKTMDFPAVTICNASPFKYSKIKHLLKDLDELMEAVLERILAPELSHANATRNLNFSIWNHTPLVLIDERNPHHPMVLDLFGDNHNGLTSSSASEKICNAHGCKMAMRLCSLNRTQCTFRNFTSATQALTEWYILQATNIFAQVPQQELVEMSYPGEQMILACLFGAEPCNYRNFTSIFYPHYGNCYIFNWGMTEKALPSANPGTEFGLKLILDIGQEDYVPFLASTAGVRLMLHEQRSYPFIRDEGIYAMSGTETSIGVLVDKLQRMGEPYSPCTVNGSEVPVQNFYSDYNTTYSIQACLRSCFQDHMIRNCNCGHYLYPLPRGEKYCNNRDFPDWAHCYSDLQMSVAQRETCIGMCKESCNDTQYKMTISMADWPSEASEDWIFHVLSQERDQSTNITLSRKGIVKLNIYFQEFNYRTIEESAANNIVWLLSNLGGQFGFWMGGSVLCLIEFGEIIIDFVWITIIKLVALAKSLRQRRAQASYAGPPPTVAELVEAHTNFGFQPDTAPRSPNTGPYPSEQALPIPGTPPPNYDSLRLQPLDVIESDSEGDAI
T1 sequence (P51170 1-649): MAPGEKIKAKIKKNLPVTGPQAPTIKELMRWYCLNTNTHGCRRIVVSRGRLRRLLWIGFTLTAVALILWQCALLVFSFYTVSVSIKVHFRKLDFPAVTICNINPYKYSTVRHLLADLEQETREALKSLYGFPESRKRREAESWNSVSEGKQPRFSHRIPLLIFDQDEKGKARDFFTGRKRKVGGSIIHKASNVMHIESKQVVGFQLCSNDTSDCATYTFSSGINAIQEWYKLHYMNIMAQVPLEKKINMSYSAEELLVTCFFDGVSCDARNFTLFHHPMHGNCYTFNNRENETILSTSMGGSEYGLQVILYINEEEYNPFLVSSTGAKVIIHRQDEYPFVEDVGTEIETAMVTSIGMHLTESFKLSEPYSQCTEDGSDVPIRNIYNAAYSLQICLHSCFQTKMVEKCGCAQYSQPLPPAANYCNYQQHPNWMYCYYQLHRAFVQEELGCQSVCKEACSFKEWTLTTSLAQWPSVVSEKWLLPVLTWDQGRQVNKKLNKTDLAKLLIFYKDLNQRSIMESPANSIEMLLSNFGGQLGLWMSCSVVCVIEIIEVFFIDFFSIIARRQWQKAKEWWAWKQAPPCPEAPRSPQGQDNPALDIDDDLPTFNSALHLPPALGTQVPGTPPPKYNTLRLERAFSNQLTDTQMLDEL
Source text: (§1) In this experiment HEK293 cells which were transfected with sequences encoding the human alpha, beta and gamma subunits were used to screen for the effect of amiloride on NaCl induced changes in membrane potential. […] These HEK293 cells were transiently transfected with plasmids containing the alpha, beta and gamma ENaC encoding nucleic acid sequences and then loaded with a membrane potential dye (FMP; Molecular Devices) in the absence of sodium (NaCl was replaced with NMDG) at room temperature for one hour. Cells were then stimulated with 70 mM NaCl with (red trace) or without (white trace) 6.25 micromolar amiloride. Changes in membrane potential (fluorescent signal) in HEK293 cells were monitored on a FLIPR system (Molecular Devices). […] HEK293 cells were transiently transfected with the gamma, beta, and delta subunit containing plasmids and were loaded with a membrane potential dye (FMP; Molecular Devices) in the absence of sodium (NaCl was replaced with NMDG) at room temperature for one hour. Cells were then stimulated with 70 mM NaCl with (red trace) or without (white trace) 50 micromolar amiloride. Changes in membrane potential (fluorescent signal) were monitored on a FLIPR system (Molecular Devices). […] Therein cells were prepared and treated as in Panels A and B. Increasing concentrations of amiloride were used to assess potency at inhibiting the different forms of ENaC.
This example relates to the fluorescent experiments contained in FIG. 2, Panels A, B and C. In the experiment in Panel A it can be seen that the enhancer S559 increases the NaCl-induced change in membrane potential in HEK293 cells expressing the alphaENaC channel. […] Changes in membrane potential (fluorescent signal) were monitored on a FLIPR system (Molecular Devices). […] Changes in membrane potential (Fluorescent signal) were monitored on a FLIPR system (Molecular Devices).

[2] = target: T2, deltaENaC channel (gamma, beta, and delta subunit) (Homo sapiens, UniProt P51168+P51170+P51172); assay: FLIPR membrane potential dye assay, dye loaded in absence of sodium (Protocol 1), deltaENaC-transfected HEK293 cells; format: cell-based; details: 50 micromolar amiloride; 70 mM NaCl stimulus; dye loaded without sodium (NMDG)
T2 construct: expressed in transfected cells; host or cells: HEK293, transient transfection
T2 sequence (P51172 1-638 isoform P51172-1): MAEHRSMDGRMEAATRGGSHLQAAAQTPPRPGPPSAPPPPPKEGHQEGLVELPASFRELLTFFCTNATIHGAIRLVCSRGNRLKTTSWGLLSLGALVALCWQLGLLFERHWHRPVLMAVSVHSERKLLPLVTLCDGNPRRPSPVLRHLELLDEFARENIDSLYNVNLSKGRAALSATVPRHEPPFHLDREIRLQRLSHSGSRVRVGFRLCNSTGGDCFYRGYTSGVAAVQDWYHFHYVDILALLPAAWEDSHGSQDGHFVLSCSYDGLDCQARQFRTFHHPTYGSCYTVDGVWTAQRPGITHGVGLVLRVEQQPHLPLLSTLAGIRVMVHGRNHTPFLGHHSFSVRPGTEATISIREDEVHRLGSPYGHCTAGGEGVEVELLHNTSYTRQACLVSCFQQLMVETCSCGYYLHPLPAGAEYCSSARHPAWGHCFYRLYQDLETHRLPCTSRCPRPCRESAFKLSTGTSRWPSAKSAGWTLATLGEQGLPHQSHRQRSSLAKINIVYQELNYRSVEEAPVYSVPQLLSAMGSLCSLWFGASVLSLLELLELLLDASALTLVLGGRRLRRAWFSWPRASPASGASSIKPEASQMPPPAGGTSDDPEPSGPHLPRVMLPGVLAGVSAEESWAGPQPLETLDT
T2 sequence (P51168 1-640): T1 sequence (P51168 1-640)
T2 sequence (P51170 1-649): T1 sequence (P51170 1-649)
Source text: as §1

[3] = target: T3, alphaENaC channel (alpha, beta and gamma ENaC subunits) (Homo sapiens, UniProt P37088+P51168+P51170); assay: FLIPR membrane potential dye assay, dye loaded in 140 mM NaCl (Protocol 2), alphaENaC-transfected HEK293 cells; format: cell-based; details: 3 micromolar amiloride
T3 construct: expressed in transfected cells; host or cells: HEK293, transient transfection
T3 sequence (P37088 1-669): T1 sequence (P37088 1-669)
T3 sequence (P51168 1-640): T1 sequence (P51168 1-640)
T3 sequence (P51170 1-649): T1 sequence (P51170 1-649)
Source text: This example relates to the fluorescent experiments contained in FIG. 2, Panels A, B and C. In the experiment in Panel A it can be seen that the enhancer S559 increases the NaCl-induced change in membrane potential in HEK293 cells expressing the alphaENaC channel. HEK293 cells were transiently transfected with plasmids containing sequences encoding the human alpha, beta, and gamma ENaC subunits and were loaded with a membrane potential dye (FMP; Molecular Devices) in the absence of sodium (NaCl was replaced with NMDG) at room temperature for one hour. Cells were then stimulated with 17.5 mM NaCl with (red trace) and without (white trace) 15 micromolar S559. Changes in membrane potential (fluorescent signal) were monitored on a FLIPR system (Molecular Devices). […] Changes in membrane potential (Fluorescent signal) were monitored on a FLIPR system (Molecular Devices).
In the experiment HEK293 cells again transfected transiently with plasmids containing the alpha, beta, and gamma ENaC subunit nucleic acid sequences and were treated as described in Example 2., Panel B (Protocol 2). Changes in membrane potential (fluorescent signal) were monitored on a FLIPR system (Molecular Devices). […] Changes in membrane potential (fluorescent signal) were monitored on a FLIPR system (Molecular Devices). […]

[4] = system: HEK293 cells; assay: FLIPR membrane potential control in mock-transfected or un-transfected HEK293 cells (Protocol 2); format: cell-based; details: HEK293 transfected with mock plasmid (pUC19)
Method: In the experiment HEK293 cells again transfected transiently with plasmids containing the alpha, beta, and gamma ENaC subunit nucleic acid sequences and were treated as described in Example 2., Panel B (Protocol 2). Changes in membrane potential (fluorescent signal) were monitored on a FLIPR system (Molecular Devices). […] HEK293 cells were transfected with a mock plasmid (pUC19) and treated as described above. Changes in membrane potential (fluorescent signal) were monitored on a FLIPR system (Molecular Devices).
HEK293 cells transiently transfected with plasmids containing nucleic acid sequences encoding the human delta, beta and gamma ENaC subunits and were treated as described in FIG. 2; Panel B (Protocol 2).

[5] = system: perceived human salt intensity; assay: Human salty taste intensity test; format: in vivo; details: 300-fold (amiloride) and 3000-fold (benzamil) above IC50 for alpha beta gamma ENaC in oocytes
Source text: Unlike other mammals, amiloride only slightly reduces the intensity of sodium chloride taste, i.e., by about 15-20% when used at concentrations that specifically modulate ENaC function. […] Thus, additional non-ENaC genes are likely involved in human taste and other biological functions.

[6] = system: perceived human salt intensity; details: concentrations that specifically modulate ENaC function; cited from earlier work

Structure (SMILES) | inhibition of NaCl induced changes in membrane potential ([1]; 6.25 micromolar amiloride, 70 mM NaCl stimulus, dye loaded without sodium (NMDG)) | apparent affinity on α-ENaC transfected cells relative to δ-ENaC transfected cells ([1]; dye loaded in absence of sodium, sodium add back) | potency at inhibiting alphaENaC versus deltaENaC ([1]; increasing concentrations of amiloride, cells treated as in Panels A and B) | inhibition of NaCl induced change in membrane potential [2] | block of S559 enhancer effects [3] | effect on membrane potential in cells that do not express alphaENaC [4] | effect on perceived human salt intensity [5] | reduction of intensity of sodium chloride taste [6]
N=C(N)NC(=O)c1nc(Cl)c(N)nc1N [amiloride] | totally inhibited | at least 10 fold | more potent at inhibiting alphaENaC than deltaENaC | totally inhibited | almost totally abolishes | do not exhibit any effect | did not elicit a significant effect | 15-20%
NC(=Nc1ccccc1)NC(=O)c1nc(Cl)c(N)nc1N [phenamil] |  |  |  |  |  |  | did not elicit a significant effect | 
